Source: PubChem BioAssay AID1963444 (Molecular Pharmacology Branch, DTP, NCI, 2024)
Where “and” joins values, the source holds several entries; their conditions need not be identical. Equal values may be shown once.

Test system: HSSY-II complex spheroid growth, percent test/control
Test: Anticancer human tumor HSSY-II cell line growth inhibition [Asc];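 note: spheroids exposed to drug for 7 days before reading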
Settings: for viability, T/C: stronger effect = lower value
Summary of the method: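 Tumor cells were grown as complex spheroids with human endothelial cells (HUVEC) and human mesenchymal stem cells as stroma. Agents were tested alone and in combination, in half-log steps down from the clinical Cmax, or from 10 microM where Cmax was unknown.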

[1] = curve of first compound, second compound 0.1 µM
[2] = curve of first compound, second compound 0.316 µM
[3] = curve of first compound, second compound 1 µM
[4] = second compound 0.1 µM, first compound 0.00316 µM
[5] = second compound 0.1 µM, first compound 0.01 µM
[6] = second compound 0.1 µM, first compound 0.0316 µM
[7] = second compound 0.1 µM, first compound 0.1 µM
[8] = second compound 0.316 µM, first compound 0.00316 µM
[9] = second compound 0.316 µM, first compound 0.01 µM
[10] = second compound 0.316 µM, first compound 0.0316 µM
[11] = second compound 0.316 µM, first compound 0.1 µM
[12] = second compound 1 µM, first compound 0.00316 µM
[13] = second compound 1 µM, first compound 0.01 µM
[14] = second compound 1 µM, first compound 0.0316 µM
[15] = second compound 1 µM, first compound 0.1 µM

## COc1c(OCCCN2CCOCC2)ccc2c3n(c(=NC(=O)c4cnc(N)nc4)nc12)CCN3 + CCN1C(C(=O)NC23CCC(C(=O)O)(CC2)CC3)C(c2cccc(Cl)c2F)C2(C(=O)Nc3cc(Cl)ccc32)C12CCCCC2
Curve of first compound, second compound 0.03 µM
  IC50: 0.0269 µM
Curve of first compound, second compound 0.0949 µM
  IC50: 0.00362 µM
Curve of first compound, second compound 0.3 µM
  IC50: < 0.00316 µM
Curve of first compound, second compound 0.949 µM
  IC50: < 0.00316 µM
Curve of first compound, second compound 3 µM
  IC50: < 0.00316 µM
Second compound 0.03 µM, first compound 0.00316 µM
  viability, T/C: 83.3%
Second compound 0.03 µM, first compound 0.01 µM
  viability, T/C: 70.4%
Second compound 0.03 µM, first compound 0.0316 µM
  viability, T/C: 42.1%
Second compound 0.03 µM, first compound 0.1 µM
  viability, T/C: 32.5%
Second compound 0.03 µM, first compound 0.316 µM
  viability, T/C: 21%
Second compound 0.03 µM, first compound 1 µM
  viability, T/C: 8.92%
Second compound 0.0949 µM, first compound 0.00316 µM
  viability, T/C: 50.1%
Second compound 0.0949 µM, first compound 0.01 µM
  viability, T/C: 44.8%
Second compound 0.0949 µM, first compound 0.0316 µM
  viability, T/C: 27.9%
Second compound 0.0949 µM, first compound 0.1 µM
  viability, T/C: 18.8%
Second compound 0.0949 µM, first compound 0.316 µM
  viability, T/C: 11.1%
Second compound 0.0949 µM, first compound 1 µM
  viability, T/C: 5.81%
Second compound 0.3 µM, first compound 0.00316 µM
  viability, T/C: 27.8%
Second compound 0.3 µM, first compound 0.01 µM
  viability, T/C: 18.8%
Second compound 0.3 µM, first compound 0.0316 µM
  viability, T/C: 13.5%
Second compound 0.3 µM, first compound 0.1 µM
  viability, T/C: 9.78%
Second compound 0.3 µM, first compound 0.316 µM
  viability, T/C: 5.2%
Second compound 0.3 µM, first compound 1 µM
  viability, T/C: 1.51%
Second compound 0.949 µM, first compound 0.00316 µM
  viability, T/C: 5.84%
Second compound 0.949 µM, first compound 0.01 µM
  viability, T/C: 4.85%
Second compound 0.949 µM, first compound 0.0316 µM
  viability, T/C: 3.58%
Second compound 0.949 µM, first compound 0.1 µM
  viability, T/C: 2.14%
Second compound 0.949 µM, first compound 0.316 µM
  viability, T/C: 1.08%
Second compound 0.949 µM, first compound 1 µM
  viability, T/C: 0.52%
Second compound 3 µM, first compound 0.00316 µM
  viability, T/C: 1.52%
Second compound 3 µM, first compound 0.01 µM
  viability, T/C: 1.05%
Second compound 3 µM, first compound 0.0316 µM
  viability, T/C: 0.78%
Second compound 3 µM, first compound 0.1 µM
  viability, T/C: 0.45%
Second compound 3 µM, first compound 0.316 µM
  viability, T/C: 0.29%
Second compound 3 µM, first compound 1 µM
  viability, T/C: 0.25%

## C=CC(=O)N1CCN(c2nc(=O)n(-c3c(C)ccnc3C(C)C)c3nc(-c4c(O)cccc4F)c(F)cc23)C(C)C1 (configuration not stated)
Compound 0.0316 µM
  viability, T/C: 107% and 90.9% and 100%
Compound 0.1 µM
  viability, T/C: 108% and 97.8% and 106%
Compound 0.316 µM
  viability, T/C: 106% and 100% and 99.8%
Compound 1 µM
  viability, T/C: 106% and 105% and 102%
Compound 3.16 µM
  viability, T/C: 95.8% and 106% and 103%
Compound 10 µM
  viability, T/C: 66.7% and 56.7% and 70.2%
Curve of compound
  IC50: > 10 µM

## CNC(C)C(=O)NC1CN(S(=O)(=O)c2cccc(S(=O)(=O)N3CCC4CCC(C(=O)NC(c5ccccc5)c5ccccc5)N4C(=O)C(NC(=O)C(C)NC)C3)c2)CCC2CCC(C(=O)NC(c3ccccc3)c3ccccc3)N2C1=O (configuration not stated)
Compound 0.00316 µM
  viability, T/C: 102% and 96.8% and 85%
Compound 0.0316 µM
  viability, T/C: 89.1% [middle of 14 runs]
Compound alone, run of 10/24/2022
  IC50: > 1 µM
Compound alone, run of 11/15/2022
  IC50: > 1 µM
Curve of compound
  IC50: > 1 µM

## CCN1CCN(Cc2ccc(Nc3ncc(F)c(-c4cc(F)c5nc(C)n(C(C)C)c5c4)n3)nc2)CC1 + CNC(C)C(=O)NC1CN(S(=O)(=O)c2cccc(S(=O)(=O)N3CCC4CCC(C(=O)NC(c5ccccc5)c5ccccc5)N4C(=O)C(NC(=O)C(C)NC)C3)c2)CCC2CCC(C(=O)NC(c3ccccc3)c3ccccc3)N2C1=O
Curve of first compound, second compound 0.01 µM
  IC50: 0.12 µM
Curve of first compound, second compound 0.0316 µM
  IC50: 0.15 µM
[1]
  IC50: 0.111 µM
[2]
  IC50: 0.0875 µM
[3]
  IC50: 0.096 µM
Second compound 0.01 µM, first compound 0.00316 µM
  viability, T/C: 95.3%
Second compound 0.01 µM, first compound 0.01 µM
  viability, T/C: 92.5%
Second compound 0.01 µM, first compound 0.0316 µM
  viability, T/C: 60.6%
Second compound 0.01 µM, first compound 0.1 µM
  viability, T/C: 54.2%
Second compound 0.01 µM, first compound 0.316 µM
  viability, T/C: 39.9%
Second compound 0.01 µM, first compound 1 µM
  viability, T/C: 23.2%
Second compound 0.0316 µM, first compound 0.00316 µM
  viability, T/C: 78.1%
Second compound 0.0316 µM, first compound 0.01 µM
  viability, T/C: 83.9%
Second compound 0.0316 µM, first compound 0.0316 µM
  viability, T/C: 66.7%
Second compound 0.0316 µM, first compound 0.1 µM
  viability, T/C: 53.2%
Second compound 0.0316 µM, first compound 0.316 µM
  viability, T/C: 42.3%
Second compound 0.0316 µM, first compound 1 µM
  viability, T/C: 23.4%
[4]
  viability, T/C: 68.5%
[5]
  viability, T/C: 78.3%
[6]
  viability, T/C: 59.1%
[7]
  viability, T/C: 51.5%
Second compound 0.1 µM, first compound 0.316 µM
  viability, T/C: 37.4%
Second compound 0.1 µM, first compound 1 µM
  viability, T/C: 24.1%
[8]
  viability, T/C: 86.5%
[9]
  viability, T/C: 89%
[10]
  viability, T/C: 68.9%
[11]
  viability, T/C: 45.2%
Second compound 0.316 µM, first compound 0.316 µM
  viability, T/C: 37.6%
Second compound 0.316 µM, first compound 1 µM
  viability, T/C: 23.9%
[12]
  viability, T/C: 88%
[13]
  viability, T/C: 76.8%
[14]
  viability, T/C: 66.9%
[15]
  viability, T/C: 46.7%
Second compound 1 µM, first compound 0.316 µM
  viability, T/C: 35.4%
Second compound 1 µM, first compound 1 µM
  viability, T/C: 18.8%

## Cn1ncnc1[C@H]1c2n[nH]c(=O)c3cc(F)cc(c23)N[C@@H]1c1ccc(F)cc1 + Cc1c(S(C)(=O)=O)c(-c2cc(F)cc(N3CCN(c4ccc(NS(=O)(=O)c5ccc(NC(CCN6CCC(C(=O)OCCCP(=O)(O)O)CC6)CSc6ccccc6)c(S(=O)(=O)C(F)(F)F)c5)cc4)CC3)c2)c(-c2ccc(Cl)cc2)n1C(C)C
[1]
  IC50: 0.0154 µM
[2]
  IC50: 0.0127 µM
[3]
  IC50: 0.00769 µM
Curve of first compound, second compound 3.16 µM
  IC50: 0.00869 µM
Curve of first compound, second compound 10 µM
  IC50: 0.00657 µM
Second compound 0.1 µM, first compound 0.000316 µM
  viability, T/C: 100%
Second compound 0.1 µM, first compound 0.001 µM
  viability, T/C: 98.9%
[4]
  viability, T/C: 81.1%
[5]
  viability, T/C: 55.8%
[6]
  viability, T/C: 39.5%
[7]
  viability, T/C: 23.1%
Second compound 0.316 µM, first compound 0.000316 µM
  viability, T/C: 97.6%
Second compound 0.316 µM, first compound 0.001 µM
  viability, T/C: 82%
[8]
  viability, T/C: 71.7%
[9]
  viability, T/C: 55.5%
[10]
  viability, T/C: 33.6%
[11]
  viability, T/C: 18.2%
Second compound 1 µM, first compound 0.000316 µM
  viability, T/C: 96.4%
Second compound 1 µM, first compound 0.001 µM
  viability, T/C: 82.2%
[12]
  viability, T/C: 63.4%
[13]
  viability, T/C: 50.3%
[14]
  viability, T/C: 22.4%
[15]
  viability, T/C: 13%
Second compound 3.16 µM, first compound 0.000316 µM
  viability, T/C: 95.8%
Second compound 3.16 µM, first compound 0.001 µM
  viability, T/C: 84.2%
Second compound 3.16 µM, first compound 0.00316 µM
  viability, T/C: 73.6%
Second compound 3.16 µM, first compound 0.01 µM
  viability, T/C: 47.5%
Second compound 3.16 µM, first compound 0.0316 µM
  viability, T/C: 21.6%
Second compound 3.16 µM, first compound 0.1 µM
  viability, T/C: 10.4%
Second compound 10 µM, first compound 0.000316 µM
  viability, T/C: 82.2%
Second compound 10 µM, first compound 0.001 µM
  viability, T/C: 75.5%
Second compound 10 µM, first compound 0.00316 µM
  viability, T/C: 65.4%
Second compound 10 µM, first compound 0.01 µM
  viability, T/C: 42.4%
Second compound 10 µM, first compound 0.0316 µM
  viability, T/C: 16.9%
Second compound 10 µM, first compound 0.1 µM
  viability, T/C: 11.3%
